The test system of one data set is neprilysin (NEP). Conditions: cited from earlier work.
A further data set deals with normal canines. Description: In vivo renal function, peptide infusion in normal canines. The arrangement: species or system canine. Conditions: for RBF / GFR / DFRNa (distal fractional reabsorption of Na+) / PFRNa (proximal fractional reabsorption of Na+) / MAP: SEM.
The mark [1] stands for this setting: Post-I (after 30-min washout), lithium clearance, mean ± SEM.
Setting [2] is: Pre-I (prior to infusion, baseline), lithium clearance technique, mean ± SEM.
Setting [3] is: normal canines, infusion 32 mmol/kg/min.

Here are results for 1 substance from paper PMC4853826 (European heart journal. Cardiovascular pharmacotherapy, 2015).

Where “and” joins values, the source holds several entries; their conditions need not be identical. Equal values may be shown once.

Turning to “CNP: native C-type natriuretic peptide, 22 amino acids, selective pGC-B activator”, in the data set on neprilysin (NEP), the “susceptibility to enzymatic degradation by NEP (in words)” value is recorded as “highly susceptible”. In addition, the RBF was 294 ± 31 mL/min in the data set with normal canines (30 min I (16th-45th min of infusion, 32 mmol/kg/min), mean ± SEM); 278 ± 29 mL/min with normal canines (60 min I (46th-75th min of infusion, 32 mmol/kg/min), mean ± SEM); 270 ± 25 mL/min with normal canines (Post-I (after 30-min washout), mean ± SEM); 273 ± 26 mL/min in the data set with normal canines (Pre-I (prior to infusion, baseline), electromagnetic flow probe, mean ± SEM). For the same substance, the GFR in the data set on normal canines (Post-I (after 30-min washout), inulin clearance, mean ± SEM) was found to be 48.8 ± 5.6 mL/min; in the data set on normal canines (dog, in vivo), 52.3 ± 5.1 mL/min. The “DFRNa (distal fractional reabsorption of Na+)” value in the data set on normal canines (setting [1]) is 97±0.8%; with normal canines (setting [2]), 98±0.6%. Also, the “PFRNa (proximal fractional reabsorption of Na+)” value amounted to 73±2% in the data set on normal canines (setting [1]) and 80±3% with normal canines (setting [2]). Moreover, the MAP is 127±4 mmHg and 128±4 mmHg in the data set with normal canines (dog, in vivo, iv); 123±4 mmHg and 128±4 mmHg with normal canines (dog, in vivo). In addition, the “net renal generation of cGMP (in words)” value in the data set with normal canines (setting [3]) is reported as “unchanged”. The “plasma cGMP (in words)” value in the data set on normal canines (setting [3]) was “modestly increased”. Further, the “urinary cGMP excretion (in words)” value in the data set with normal canines (setting [3]) is listed as “unchanged”.
